From publication PMC12389234, “Bioactive Potential of Nepenthes miranda Flower Extracts: Antidiabetic, Anti-Skin Aging, Cytotoxic, and Dihydroorotase-Inhibitory Activities” (Plants, 2025)

Biological target: T1, porcine pancreatic elastase (Sus scrofa, UniProt P00772)
T1 construct: gene CELA1; native mature enzyme from porcine pancreas (commercial, Sigma-Aldrich)
Test: spectrophotometric, p-nitroanilide release, […] nm
Assay type: biochemical

T1 sequence (P00772 27-266): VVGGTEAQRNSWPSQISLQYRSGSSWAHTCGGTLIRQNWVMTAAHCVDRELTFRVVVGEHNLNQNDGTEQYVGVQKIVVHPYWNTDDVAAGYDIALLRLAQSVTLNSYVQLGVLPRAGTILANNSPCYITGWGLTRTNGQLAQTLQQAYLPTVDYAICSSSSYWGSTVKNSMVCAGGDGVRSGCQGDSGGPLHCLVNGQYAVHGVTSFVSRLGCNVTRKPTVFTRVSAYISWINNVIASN

- IC50: 9.27 µM
Structure (SMILES): O=C(O[C@@H]1Cc2c(O)cc(O)cc2O[C@@H]1c1cc(O)c(O)c(O)c1)c1cc(O)c(O)c(O)c1 [EGCG]
